The NIST ThermoML archive (doi:10.1021/je0502546)

Experiments:
[1] = refractive index (Na D-line) (dimensionless); conditions: 101.33 kPa, Liquid, Standard Abbe refractometry
[2] = 101 kPa, Liquid; for viscosity: Capillary tube (Ostwald / Ubbelohde) method
[3] = xn = mol fraction of the nth substance listed; conditions: 101 kPa, Liquid; for viscosity: Capillary tube (Ostwald / Ubbelohde) method
[4] = refractive index (Na D-line) (dimensionless); xn = mol fraction of the nth substance listed; conditions: 101 kPa, Liquid, Standard Abbe refractometry

c1ccccc1 [benzene]
Conditions	mass density, [2] [kg/m3]	refractive index, [1]	viscosity, [2] [mPa·s]
293.15 K	877.43	1.5011	0.647
303.15 K	868.26	1.4947	0.563

c1ccccc1 [benzene] + COc1ccccc1
x2 = 0
Conditions	mass density, [3] [kg/m3]	refractive index, [4]	viscosity, [3] [mPa·s]
293.15 K	877.43	1.5011	0.647
303.15 K	868.26	1.4947	0.563

CCCCc1ccccc1 [butylbenzene]
Conditions	mass density, [2] [kg/m3]	refractive index, [1]	viscosity, [2] [mPa·s]
293.15 K	861.26	1.4895	1.034
303.15 K	852.23	1.4845	0.893

CCCCc1ccccc1 [butylbenzene] + COc1ccccc1
Conditions	mass density, [3] [kg/m3]	refractive index, [4]	viscosity, [3] [mPa·s]
293.15 K, x2 = 0	861.26	1.4895	1.034
293.15 K, x2 = 0.1238	873.01	1.4923	1.005
293.15 K, x2 = 0.225	884.01	1.4948	0.985
293.15 K, x2 = 0.3541	898.83	1.498	0.971
293.15 K, x2 = 0.48	914.4	1.5014	0.965
293.15 K, x2 = 0.581	927.77	1.5042	0.97
293.15 K, x2 = 0.67	940.23	1.5068	0.983
293.15 K, x2 = 0.7672	954.65	1.5097	1.002
293.15 K, x2 = 0.8483	967.5	1.5123	1.027
293.15 K, x2 = 0.9201	979.53	1.5148	1.052
303.15 K, x2 = 0	852.23	1.4845	0.893
303.15 K, x2 = 0.1238	865.04	1.4872	0.872
303.15 K, x2 = 0.225	875.92	1.4896	0.855
303.15 K, x2 = 0.3541	890.71	1.4927	0.841
303.15 K, x2 = 0.48	906.13	1.4961	0.837
303.15 K, x2 = 0.581	919.36	1.4989	0.842
303.15 K, x2 = 0.67	931.73	1.5014	0.851
303.15 K, x2 = 0.7672	946.15	1.5043	0.867
303.15 K, x2 = 0.8483	958.84	1.5068	0.885
303.15 K, x2 = 0.9201	970.6	1.5093	0.905

CCc1ccccc1 [ethylbenzene]
Conditions	mass density, [2] [kg/m3]	refractive index, [1]	viscosity, [2] [mPa·s]
293.15 K	866.95	1.4957	0.669
303.15 K	858.01	1.4902	0.596
